Measured values taken from ChEMBL document CHEMBL5034023, “Development of Multifunctional and Orally Active Cyclic Peptide Agonists of Opioid/Neuropeptide FF Receptors that Produce Potent, Long-Lasting, and Peripherally Restricted Antinociception with Diminished Side Effects” (J Med Chem, 2021).
pEC50: −log10 of the molar value. Active and inactive are the calls of the source. Bridge positions count the residues as written; N and C are the ends. Square brackets hold non-standard residues; d marks the D form. Peptide text beside a SMILES is read from it. NMeF = CN[C@@H](Cc1ccccc1)C(=O)O

Assays:
[1] = AUC (0 to infinity) in Kunming mouse at 868.1 nmol/kg, iv measured up to 120 mins by LC-MS/MS analysis; assay type: ADME, organism-based; set-up: route intravenous, dose 868.1 nmol/kg, time <=120; conditions: in vivo, 2 h
[2] = system: Mus musculus; experiment: Antinociceptive activity against sc dosed Kunming mouse model of thermal-induced nociception assessed as fold shift in duration of analgesic effect by tail-flick test relative to DN-9; assay type: functional
[3] = system: Mus musculus; experiment: Antinociceptive activity against Kunming mouse model of thermal-induced nociception assessed as prolongation of tail-flick latency period at 8.68 nmol/kg, po in presence of beta-FNA at 1 mg/kg, ip measured up to 240 mins by tail-flick test; assay type: functional, organism-based; conditions: time min <=240
[4] = Metabolic stability in mouse plasma assessed as degradation half life at 0.01 M measured up to 360 mins; assay type: ADME, cell-free
[5] = system: Mus musculus; experiment: Antinociception activity in po dosed Kunming mouse model of sciatic nerve CCI-induced neuropathic pain assessed as reduction in mechanical hypersensitivity by measuring reduction in paw withdrawl threshold measured up to 180 mins by Von Frey test; assay type: functional; conditions: 3 h, time min <=180
[6] = system: Mus musculus; experiment: Antinociceptive activity against icv dosed Kunming mouse model of thermal-induced nociception assessed as prolongation of tail-flick latency period measured up to 240 mins by tail-flick test; assay type: functional; conditions: time min <=240
[7] = Toxicity in Kunming mouse assessed as effect on arterial partial pressure of oxygen at 868.1 nmol/kg, po measured up to 30 mins by blood gas analyzer; assay type: organism-based; conditions: in vivo, 0.5 h
[8] = system: Mus musculus; experiment: Antinociceptive activity against Kunming mouse model of thermal-induced nociception assessed as prolongation of tail-flick latency period at 8.68 nmol/kg, po in presence of NALM at 1 mg/kg, ip measured up to 240 mins by tail-flick test; assay type: functional, organism-based; conditions: time min <=240
[9] = system: Mus musculus; experiment: Antinociceptive activity against Kunming mouse model of thermal-induced nociception assessed as prolongation of tail-flick latency period at 8.68 nmol/kg, sc in presence of NALM at 1 mg/kg, sc measured up to 240 mins by tail-flick test; assay type: functional, organism-based; conditions: time min <=240
[10] = system: Mus musculus; experiment: Antinociceptive activity against Kunming mouse model of thermal-induced nociception assessed as prolongation of tail-flick latency period at 8.68 nmol/kg, po in presence of NTI at 1 mg/kg, ip measured up to 240 mins by tail-flick test; assay type: functional, organism-based; conditions: time min <=240
[11] = Clearance in Kunming mouse at 868.1 nmol/kg, po measured up to 120 mins by LC-MS/MS analysis; assay type: ADME, organism-based; conditions: in vivo
[12] = Toxicity in Kunming mouse assessed as effect on arterial partial pressure of carbon dioxide at 868.1 nmol/kg, po measured up to 30 mins by blood gas analyzer; assay type: organism-based; conditions: in vivo, 0.5 h
[13] = system: Mus musculus; experiment: Antinociceptive activity against po dosed Kunming mouse model of carrageenan-induced mechanical inflammatory pain assessed as reduction in paw withdrawl threshold measured up to 180 mins by Von Frey assay; assay type: functional; conditions: 3 h, time min <=180
[14] = molecular target: Kappa-type opioid receptor (Homo sapiens, UniProt P41145); assay type: functional, cell-based, HEK293-A
Chain of Kappa-type opioid receptor (P41145 whole entry): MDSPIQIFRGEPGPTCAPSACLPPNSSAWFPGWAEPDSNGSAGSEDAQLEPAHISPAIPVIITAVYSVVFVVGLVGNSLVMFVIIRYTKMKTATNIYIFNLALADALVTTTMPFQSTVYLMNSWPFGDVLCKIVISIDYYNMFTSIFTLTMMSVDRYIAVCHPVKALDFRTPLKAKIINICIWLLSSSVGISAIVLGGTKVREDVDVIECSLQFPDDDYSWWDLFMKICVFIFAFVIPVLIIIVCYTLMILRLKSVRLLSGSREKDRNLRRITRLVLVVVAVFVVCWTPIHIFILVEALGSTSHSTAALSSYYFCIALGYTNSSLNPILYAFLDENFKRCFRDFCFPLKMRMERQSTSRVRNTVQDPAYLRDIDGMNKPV

[15] = molecular target: Neuropeptide FF receptor 2 (Homo sapiens, UniProt Q9Y5X5); experiment: Agonist activity at NPFF2R (unknown origin) expressed in HEK293-A cells assessed as inhibition of forskolin-induced cAMP accumulation by measuring maximal efficacy preincubated for 30 mins in presence of 3-isobutyl-1-methylxanthine followed by forskolin and compound addition by competitive PKA binding assay relative to control; assay type: functional, cell-based; conditions: filed as agonist
Chain of Neuropeptide FF receptor 2 (Q9Y5X5 whole entry): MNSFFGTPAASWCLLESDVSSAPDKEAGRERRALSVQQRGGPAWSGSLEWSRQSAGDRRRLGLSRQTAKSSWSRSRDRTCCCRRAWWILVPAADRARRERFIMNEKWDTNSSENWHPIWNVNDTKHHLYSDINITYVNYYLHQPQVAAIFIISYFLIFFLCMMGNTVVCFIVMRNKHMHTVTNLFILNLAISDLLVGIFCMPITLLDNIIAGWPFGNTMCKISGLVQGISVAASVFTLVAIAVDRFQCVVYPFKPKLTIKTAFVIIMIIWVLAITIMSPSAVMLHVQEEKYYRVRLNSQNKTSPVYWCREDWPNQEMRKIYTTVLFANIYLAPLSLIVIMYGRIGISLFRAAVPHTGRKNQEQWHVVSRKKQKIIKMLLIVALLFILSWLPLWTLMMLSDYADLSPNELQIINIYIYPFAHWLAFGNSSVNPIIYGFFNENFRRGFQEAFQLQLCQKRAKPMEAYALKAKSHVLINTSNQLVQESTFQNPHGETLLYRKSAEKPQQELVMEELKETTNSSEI

[16] = molecular target: Delta-type opioid receptor (Homo sapiens, UniProt P41143); experiment: Agonist activity at DOR (unknown origin) expressed in HEK293-A cells assessed as inhibition of forskolin-induced cAMP accumulation preincubated for 30 mins in presence of 3-isobutyl-1-methylxanthine followed by forskolin and compound addition by competitive PKA binding assay; assay type: functional, cell-based
Chain of Delta-type opioid receptor (P41143 whole entry): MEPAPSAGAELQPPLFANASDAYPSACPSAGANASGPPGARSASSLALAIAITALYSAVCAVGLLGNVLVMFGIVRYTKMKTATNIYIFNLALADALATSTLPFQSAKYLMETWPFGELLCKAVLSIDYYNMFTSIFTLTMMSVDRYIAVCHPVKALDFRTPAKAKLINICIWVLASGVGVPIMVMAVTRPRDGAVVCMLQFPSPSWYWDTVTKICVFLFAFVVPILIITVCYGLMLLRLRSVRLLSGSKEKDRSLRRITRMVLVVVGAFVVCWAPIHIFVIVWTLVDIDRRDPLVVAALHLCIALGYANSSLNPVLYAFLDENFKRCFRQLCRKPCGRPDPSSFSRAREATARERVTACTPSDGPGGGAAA

[17] = system: Mus musculus; experiment: Antinociceptive activity against Kunming mouse model of thermal-induced nociception assessed as prolongation of tail-flick latency period at 0.5 pmol, icv in presence of RF9 measured up to 240 mins by tail-flick test; assay type: functional, organism-based; conditions: time min <=240
[18] = Half life in Kunming mouse at 868.1 nmol/kg, po measured up to 120 mins by LC-MS/MS analysis; assay type: ADME, organism-based; conditions: in vivo
[19] = system: Mus musculus; experiment: Antinociception activity in po dosed Kunming mouse model of sciatic nerve CCI-induced neuropathic pain assessed as reduction in thermal hypersensitivity by measuring reduction in paw withdrawl threshold measured up to 180 mins by Hargreaves test; assay type: functional; conditions: 3 h, time min <=180
[20] = Cmax in Kunming mouse at 868.1 nmol/kg, po measured up to 120 mins by LC-MS/MS analysis; assay type: ADME, organism-based; set-up: route oral, dose 868.1 nmol/kg, time <=120; conditions: in vivo
[21] = system: Mus musculus; experiment: Antinociceptive activity against Kunming mouse model of thermal-induced nociception assessed as prolongation of tail-flick latency period at 2 pmol, icv in presence of NTI measured up to 240 mins by tail-flick test; assay type: functional, organism-based; conditions: time min <=240
[22] = system: Mus musculus; experiment: Antinociceptive activity against Kunming mouse model of thermal-induced nociception assessed as prolongation of tail-flick latency period at 8.68 nmol/kg, po in presence of NALM at 5 nmol, icv measured up to 240 mins by tail-flick test; assay type: functional, organism-based; conditions: time min <=240
[23] = system: Mus musculus; experiment: Antinociceptive activity in po dosed Kunming mouse assessed as analgesic tolerance by measuring increase in maximal possible effect administered for 8 consecutive days by tail flick test (Rvb= 1.16 nmol/kg); assay type: functional
[24] = Half life in Kunming mouse at 868.1 nmol/kg, iv measured up to 120 mins by LC-MS/MS analysis; assay type: ADME, organism-based; conditions: in vivo
[25] = Apparent volume of distribution in Kunming mouse at 868.1 nmol/kg, po measured up to 120 mins by LC-MS/MS analysis; assay type: ADME, organism-based; conditions: in vivo, 2 h
[26] = system: Mus musculus; experiment: Antinociceptive activity against Kunming mouse model of thermal-induced nociception assessed as maximum possible effect at 8.68 nmol/kg, po measured after 20 min by tail flick test relative to control; assay type: functional
[27] = Apparent volume of distribution in Kunming mouse at 868.1 nmol/kg, iv measured up to 120 mins by LC-MS/MS analysis; assay type: ADME, organism-based; conditions: in vivo, read-out: Vd(app)
[28] = molecular target: Mu-type opioid receptor (Homo sapiens, UniProt P35372)
Chain of Mu-type opioid receptor (P35372 whole entry): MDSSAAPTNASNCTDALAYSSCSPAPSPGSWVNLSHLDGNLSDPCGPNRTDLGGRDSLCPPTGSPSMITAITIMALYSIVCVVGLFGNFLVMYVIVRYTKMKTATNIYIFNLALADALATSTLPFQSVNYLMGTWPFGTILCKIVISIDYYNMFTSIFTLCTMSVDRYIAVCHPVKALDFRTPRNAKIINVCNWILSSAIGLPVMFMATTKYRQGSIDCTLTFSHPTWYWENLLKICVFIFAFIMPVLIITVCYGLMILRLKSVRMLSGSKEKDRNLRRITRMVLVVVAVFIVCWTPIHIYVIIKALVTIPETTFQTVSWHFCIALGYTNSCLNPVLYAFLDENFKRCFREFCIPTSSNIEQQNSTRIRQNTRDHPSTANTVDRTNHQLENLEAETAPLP

[29] = system: Mus musculus; experiment: Antinociceptive activity against Kunming mouse model of thermal-induced nociception assessed as prolongation of tail-flick latency period at 8.68 nmol/kg, po in presence of Nal at 1 mg/kg, ip measured up to 240 mins by tail-flick test; assay type: functional, organism-based; conditions: time min <=240
[30] = system: Mus musculus; experiment: Antinociceptive activity against Kunming mouse model of thermal-induced nociception assessed as prolongation of tail-flick latency period at 8.68 nmol/kg, po in presence of nor-BNI at 1 mg/kg, ip measured up to 240 mins by tail-flick test; assay type: functional, organism-based; conditions: time min <=240
[31] = Toxicity in naloxone-induced withdrawal symptoms in Kunming mouse assessed as effect on jumping response at 17 to 870 nmol/kg, po for every 8 hrs followed by naloxone stimulation and measured for 3 days; assay type: organism-based; conditions: in vivo, 72 h, dose 17-870 nmol/kg, time 3 day
[32] = system: Mus musculus; experiment: Antinociceptive activity against Kunming mouse model of thermal-induced nociception assessed as maximum possible effect at 8.68 nmol/kg, po measured after 30 min by tail flick test relative to control; assay type: functional; conditions: 0.5 h
[33] = Toxicity in Kunming mouse assessed as effect on conditioned place preference at 868.1 nmol/kg, po measured for 5 days; assay type: organism-based; conditions: in vivo, 120 h, time 5 day

SMILES: CN1C(=O)CNC(=O)[C@H](NC(=O)[C@@H](N)Cc2ccc(O)cc2)CCCCNC(=O)C[C@@H](C(=O)N2CCC[C@H]2C(=O)N[C@@H](CCC(N)=O)C(=O)N[C@@H](CCCNC(=N)N)C(=O)N[C@@H](Cc2ccccc2)C(N)=O)NC(=O)[C@@H]1Cc1ccccc1 (H-Y[dK]G[NMeF]DPQRF-NH2; lactam 2-5)
- AUC [1]: 33297.7 µg·min/L
- fold change (FC) [2]: 2.7
- Activity [3]: inactive
- half-life at 10000 µM [4]: 45.4 min
- ED50 [5]: 0.00334 µmol/kg
- ED50 [6]: 0.63 pmol
- Activity [7]: Non-Toxic
- Activity [8]: inactive
- Activity [9]: inactive
- Activity [10]: Active
- CL/F [11]: 130 mL/min/kg
- Activity [12]: Non-Toxic
- ED50 [13]: 0.00344 µmol/kg
- pEC50 [14]: 7.41
- Emax [15]: 59.5%
- pEC50 [16]: 6.26
- Activity [17]: Active
- half-life [18]: 188 min
- ED50 [19]: 0.00322 µmol/kg
- Cmax [20]: 215 ng/mL
- Activity [21]: Active
- Activity [22]: Active
- ED50 [23]: 0.00126 µmol/kg
- half-life [24]: 28.1 min
- Vd(app) [25]: 15.9 L/kg
- MPE [26]: 89.7%
- Vd [27]: 1.2 L/kg
- pEC50 [28]: 7.03
- Activity [29]: inactive
- Activity [30]: inactive
- Activity [31]: Non-Toxic
- MPE [32]: 94.2%
- Activity [33]: Non-Toxic
